Bounds are passed on as bounds.

The target in the assay is Sigma non-opioid intracellular receptor 1 (Cavia porcellus). As to the kind of experiment: Inhibitory concentration against opioid receptor sigma 1 of guinea pig cerebral cortex using [3H](+)-pentazocine upon incubation for 150 minutes at 22 degree C.
What is called IC50 is the concentration at which inhibition is half-maximal. In turn, `O=c1n(CCN2CCCCC2)c(O)c2n1Cc1ccccc1C2` registered an IC50 of 6.6 nM.

Consider `c1ccc2c(c1)C[C@H]1CN(CCN3CCCCC3)CN1C2` [(S)-2-(2-Piperidin-1-yl-ethyl)-1,2,3,5,10,10a-hexahydro-imidazo[1,5-b]isoquinoline], for which half-maximal inhibition (IC50) was put at 77 nM. Next, `O=C1N(CCN2CCCCC2)C[C@@H]2Cc3ccccc3CN12` [(S)-2-(2-Piperidin-1-yl-ethyl)-1,5,10,10a-tetrahydro-2H-imidazo[1,5-b]isoquinolin-3-one]: 54 nM. For `Oc1c2n(c(=S)n1CCN1CCCCC1)Cc1ccccc1C2` [(S)-2-(2-Piperidin-1-yl-ethyl)-3-thioxo-2,3,10,10a-tetrahydro-5H-imidazo[1,5-b]isoquinolin-1-one] the value was 0.9 nM; for `O=c1n(CCN2CCCCC2)c(O)c2n1CCCC2` [(S)-2-(2-Piperidin-1-yl-ethyl)-tetrahydro-imidazo[1,5-a]pyridine-1,3-dione], over 1000 nM.

The record behind these values is BindingDB's records for doi:10.1016/j.bmcl.2005.07.040 (Universit&#233, 2005).
